Experimental data from article PMC10570359, “Dietary supplementation of cystinotic mice by lysine inhibits the megalin pathway and decreases kidney cystine content” (Scientific Reports, 2023).

What was measured:
[1] = Clinical urine and serum analyses in Ctns KO mice under 5x-dAA diets
Excerpt: We also attempted to further discriminate between luminal (competition for surface megalin binding) and intracellular metabolic effects (see Discussion) by comparing the effects of 5x-L-lysine to its stereoisomer, 5x-D-lysine. Unless stated otherwise, diets were initiated at 6 months-of-age, and mice were studied then euthanized at 8 months-of-age (2-months treatment). This time frame was selected for two reasons. First, in the mouse cystinosis model, this an appropriate window to evaluate the impact on PTC alterations based on changes in kidney cystine accumulation and overall function. […] Second, although primary prevention by earlier intervention (from 2-to-6 months-of-age) better mimics perinatal genetic megalin ablation, thus could be more efficient, secondary intervention (starting at 6 months-of-age), when disease becomes clinically apparent, is more relevant for further translational studies.
Body weight was recorded before entering the metabolic cages. […] Creatinine clearance was normalized by mouse body weight.

porcine megalin [2] = target: T1, porcine megalin (Sus scrofa, UniProt C0HL13); assay: Surface plasmon resonance: competition for TC:B12 binding to chip-immobilized megalin; details: for IC50: IC50 for TC:B12/megalin interaction (mM; 95%CI), 10 µg/ml TC:B12 in 0 to 100 mM amino-acid, Biacore; for SPR signal of amino-acid alone on megalin chip: chips exposed to increasing concentrations of amino-acid, no analyte
T1 sequence (C0HL13 26-4652): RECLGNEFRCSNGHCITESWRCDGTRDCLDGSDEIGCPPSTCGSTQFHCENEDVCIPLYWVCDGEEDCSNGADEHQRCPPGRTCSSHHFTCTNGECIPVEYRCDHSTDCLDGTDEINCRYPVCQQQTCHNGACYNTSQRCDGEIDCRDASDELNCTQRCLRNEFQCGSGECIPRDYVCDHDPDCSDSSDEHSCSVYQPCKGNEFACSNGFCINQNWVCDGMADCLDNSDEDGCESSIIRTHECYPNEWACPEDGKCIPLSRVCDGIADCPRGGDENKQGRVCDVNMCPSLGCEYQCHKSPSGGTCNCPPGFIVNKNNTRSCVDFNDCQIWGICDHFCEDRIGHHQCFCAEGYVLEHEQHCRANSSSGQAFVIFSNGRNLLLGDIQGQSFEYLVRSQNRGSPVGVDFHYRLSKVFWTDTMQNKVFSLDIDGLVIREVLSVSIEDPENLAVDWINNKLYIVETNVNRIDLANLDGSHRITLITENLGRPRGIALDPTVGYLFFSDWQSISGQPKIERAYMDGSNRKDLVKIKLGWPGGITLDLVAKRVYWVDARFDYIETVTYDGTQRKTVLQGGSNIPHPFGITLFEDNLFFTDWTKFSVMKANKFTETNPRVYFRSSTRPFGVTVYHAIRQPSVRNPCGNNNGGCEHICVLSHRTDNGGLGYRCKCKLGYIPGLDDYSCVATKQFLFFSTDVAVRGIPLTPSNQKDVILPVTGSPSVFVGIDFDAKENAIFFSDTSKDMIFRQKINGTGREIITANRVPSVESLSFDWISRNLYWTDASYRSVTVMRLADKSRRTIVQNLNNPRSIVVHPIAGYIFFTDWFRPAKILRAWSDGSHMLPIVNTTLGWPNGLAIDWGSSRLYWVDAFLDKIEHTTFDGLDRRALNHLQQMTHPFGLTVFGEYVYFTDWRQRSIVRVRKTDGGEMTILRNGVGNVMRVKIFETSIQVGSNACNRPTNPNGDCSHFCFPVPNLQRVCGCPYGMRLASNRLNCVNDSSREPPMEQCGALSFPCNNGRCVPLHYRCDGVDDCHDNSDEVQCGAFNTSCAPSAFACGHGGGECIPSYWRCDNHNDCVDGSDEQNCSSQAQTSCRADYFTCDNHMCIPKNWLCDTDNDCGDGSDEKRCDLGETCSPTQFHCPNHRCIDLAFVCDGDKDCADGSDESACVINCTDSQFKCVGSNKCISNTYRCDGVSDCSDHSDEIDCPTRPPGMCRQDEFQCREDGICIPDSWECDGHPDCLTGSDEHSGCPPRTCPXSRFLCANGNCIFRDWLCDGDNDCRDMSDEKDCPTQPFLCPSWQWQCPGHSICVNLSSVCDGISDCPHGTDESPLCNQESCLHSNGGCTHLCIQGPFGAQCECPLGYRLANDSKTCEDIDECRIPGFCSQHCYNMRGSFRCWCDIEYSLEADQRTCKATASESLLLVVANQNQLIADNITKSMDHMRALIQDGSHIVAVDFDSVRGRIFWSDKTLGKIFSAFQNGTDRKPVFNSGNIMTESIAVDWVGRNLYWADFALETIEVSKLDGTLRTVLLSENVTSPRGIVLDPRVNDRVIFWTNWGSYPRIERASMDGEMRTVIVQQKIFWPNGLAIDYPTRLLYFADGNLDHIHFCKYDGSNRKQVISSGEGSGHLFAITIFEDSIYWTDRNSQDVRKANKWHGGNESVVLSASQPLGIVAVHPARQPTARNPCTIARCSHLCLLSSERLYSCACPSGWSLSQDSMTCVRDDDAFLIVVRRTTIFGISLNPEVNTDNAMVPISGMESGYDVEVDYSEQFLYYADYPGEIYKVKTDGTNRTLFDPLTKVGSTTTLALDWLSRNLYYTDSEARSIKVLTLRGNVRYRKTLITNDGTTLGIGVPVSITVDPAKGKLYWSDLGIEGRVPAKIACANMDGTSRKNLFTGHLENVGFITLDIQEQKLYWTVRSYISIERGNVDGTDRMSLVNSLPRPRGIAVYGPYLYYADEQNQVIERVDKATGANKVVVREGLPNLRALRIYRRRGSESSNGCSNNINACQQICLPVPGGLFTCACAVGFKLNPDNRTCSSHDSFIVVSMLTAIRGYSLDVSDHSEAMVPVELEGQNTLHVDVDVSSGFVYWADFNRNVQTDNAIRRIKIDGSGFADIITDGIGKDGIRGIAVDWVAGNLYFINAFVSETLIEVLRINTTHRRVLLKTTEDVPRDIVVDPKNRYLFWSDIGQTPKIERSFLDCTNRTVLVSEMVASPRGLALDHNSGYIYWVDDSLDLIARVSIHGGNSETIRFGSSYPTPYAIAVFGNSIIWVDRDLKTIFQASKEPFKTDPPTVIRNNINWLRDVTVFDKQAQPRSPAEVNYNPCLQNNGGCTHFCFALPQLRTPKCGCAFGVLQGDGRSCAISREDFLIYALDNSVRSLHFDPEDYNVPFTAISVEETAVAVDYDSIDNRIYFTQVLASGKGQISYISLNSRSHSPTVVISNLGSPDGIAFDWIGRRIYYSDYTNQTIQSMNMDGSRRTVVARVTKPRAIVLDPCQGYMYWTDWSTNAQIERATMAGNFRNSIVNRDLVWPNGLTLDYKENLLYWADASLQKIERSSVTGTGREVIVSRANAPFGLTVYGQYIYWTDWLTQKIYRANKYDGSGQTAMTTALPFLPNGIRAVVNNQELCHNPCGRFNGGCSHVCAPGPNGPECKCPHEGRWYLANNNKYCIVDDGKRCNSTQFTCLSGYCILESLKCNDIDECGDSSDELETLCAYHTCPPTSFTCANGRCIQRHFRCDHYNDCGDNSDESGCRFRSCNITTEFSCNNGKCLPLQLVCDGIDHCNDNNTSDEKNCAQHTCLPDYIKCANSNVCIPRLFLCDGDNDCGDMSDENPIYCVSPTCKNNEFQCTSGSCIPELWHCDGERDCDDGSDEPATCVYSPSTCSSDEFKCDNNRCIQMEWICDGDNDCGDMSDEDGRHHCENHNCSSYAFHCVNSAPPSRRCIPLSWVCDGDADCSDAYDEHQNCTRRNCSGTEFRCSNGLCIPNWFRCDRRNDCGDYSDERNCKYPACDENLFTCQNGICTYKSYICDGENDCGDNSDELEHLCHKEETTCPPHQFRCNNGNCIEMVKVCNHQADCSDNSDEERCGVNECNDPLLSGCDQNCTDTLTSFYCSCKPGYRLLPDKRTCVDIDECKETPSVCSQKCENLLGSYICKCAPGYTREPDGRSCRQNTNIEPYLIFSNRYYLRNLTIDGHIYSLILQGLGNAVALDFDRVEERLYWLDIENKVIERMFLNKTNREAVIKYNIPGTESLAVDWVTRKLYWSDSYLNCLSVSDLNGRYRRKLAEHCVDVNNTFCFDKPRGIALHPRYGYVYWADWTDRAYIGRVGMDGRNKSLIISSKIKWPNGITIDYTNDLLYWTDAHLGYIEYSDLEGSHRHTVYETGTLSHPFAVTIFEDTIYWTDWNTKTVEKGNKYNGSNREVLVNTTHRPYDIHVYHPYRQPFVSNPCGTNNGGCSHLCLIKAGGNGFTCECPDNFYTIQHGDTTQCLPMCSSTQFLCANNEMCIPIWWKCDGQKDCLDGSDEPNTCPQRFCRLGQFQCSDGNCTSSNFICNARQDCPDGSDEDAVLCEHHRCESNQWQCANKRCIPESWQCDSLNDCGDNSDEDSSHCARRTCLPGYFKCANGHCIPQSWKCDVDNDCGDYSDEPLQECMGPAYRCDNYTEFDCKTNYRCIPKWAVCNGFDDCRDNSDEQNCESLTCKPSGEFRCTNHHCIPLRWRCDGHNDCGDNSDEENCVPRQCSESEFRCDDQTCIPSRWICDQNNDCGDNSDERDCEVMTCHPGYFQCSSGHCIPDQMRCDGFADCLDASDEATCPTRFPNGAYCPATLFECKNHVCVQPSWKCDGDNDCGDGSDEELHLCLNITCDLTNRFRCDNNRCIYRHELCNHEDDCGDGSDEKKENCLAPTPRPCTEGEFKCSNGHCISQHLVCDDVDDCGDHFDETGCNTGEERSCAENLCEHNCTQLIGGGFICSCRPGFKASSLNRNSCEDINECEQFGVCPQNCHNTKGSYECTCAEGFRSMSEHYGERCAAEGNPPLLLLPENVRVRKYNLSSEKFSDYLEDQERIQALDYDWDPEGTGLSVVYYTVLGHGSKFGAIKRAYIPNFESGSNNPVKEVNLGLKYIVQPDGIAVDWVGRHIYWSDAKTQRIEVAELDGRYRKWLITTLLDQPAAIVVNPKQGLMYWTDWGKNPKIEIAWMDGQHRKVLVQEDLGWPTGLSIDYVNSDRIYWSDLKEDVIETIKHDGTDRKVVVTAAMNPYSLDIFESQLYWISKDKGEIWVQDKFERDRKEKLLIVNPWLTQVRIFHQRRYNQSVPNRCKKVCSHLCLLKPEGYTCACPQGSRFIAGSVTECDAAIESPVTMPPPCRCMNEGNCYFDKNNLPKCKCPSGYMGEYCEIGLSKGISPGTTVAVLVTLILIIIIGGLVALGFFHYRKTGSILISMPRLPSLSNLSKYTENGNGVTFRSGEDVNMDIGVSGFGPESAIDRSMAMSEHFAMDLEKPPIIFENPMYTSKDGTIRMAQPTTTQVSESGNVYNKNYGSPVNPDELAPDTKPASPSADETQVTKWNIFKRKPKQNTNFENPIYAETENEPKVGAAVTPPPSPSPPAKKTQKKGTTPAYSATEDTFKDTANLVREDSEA
Method: (§1) To directly address whether supra-physiological concentrations of dibasic amino-acids (dAAs) can interfere with binding of protein ligands to megalin, we used surface plasmon resonance. Sensor chips were derivatized with porcine megalin at high density. […] After flushing, chips were incubated with 10 µg/ml of three analytes: the megalin chaperone, RAP (receptor-associated protein), as positive control (not shown), or two physiological megalin ligands: transcobalamine:cobalamine complexes (TC:B12; Fig. 1; sensorgrams shown at Supplemental Fig. 1a) or lysozyme (Supplemental Fig. 1b), diluted in 0 to 100 mM of the same amino-acids in buffer. […] The supraphysiological range for effective competition in vitro defined the necessary increment in urinary concentration from dietary supplementation for significant competition in vivo.
Figure 1 Acellular assay: direct competition for transcobalamine:cobalamine binding to megalin immobilized on Biacore sensor chips. Signals of sensorgrams (shown in Supplemental Fig. 1) were normalized to control signal without AA supplementation, taken as the unity, and are means ± SEM of at least four independent technical duplicate values at each of the indicated amino-acid-concentrations.
(§2) Surface plasmon resonance (SPR) analysis of the binding to chip-immobilized megalin of receptor-associated protein (RAP), transcobalamine:cobalamine complex (TC:B12) and lysozyme was carried out using a Biacore T200 instrument (Uppsala, Sweden). The sensor chips (type CM5) were activated with a 1:1 mixture of 0.2 M N-ethyl-N′-(3-dimethylaminopropyl) carbodiimide and 0.05 M N-hydroxysuccinimide in H2O. Porcine megalin[49] was immobilized on the chip in 10 mM sodium acetate, pH 4.0, and the remaining binding sites were blocked with 1 M ethanolamine, pH 8.5. The SPR signal generated from immobilized megalin were obtained with a density of 4.5 fmol protein/mm^2.
(§3) Human RAP was produced as recombinant protein in E. coli[50] and used to validate the sensor chip. TC was purified and complexed with B12 as described (TC/B12)[50],[51]. Human recombinant lysozyme was purchased from Sigma-Aldrich (expressed in rice, # L1667). Sensorgrams were generated using each of these three ligands at 10 µg/ml in a running buffer consisting of 10 mM Hepes, 150 mM NaCl, 4 mM CaCl2 and 0.05% Tween 20, pH 7.4. The flow cells were regenerated with 1 M ethanolamine pH 9.0. Analyte testing was performed as a dual injection starting with running buffer supplemented with the defined concentrations of amino acids followed by injection of analyte in the same solution. The pH of all buffers was adjusted after amino acids addition. All binding experiments were made as at least independent triplicate of technical duplicates and data were analyzed using the Biacore T200 evaluation software version 3.1.

porcine megalin [3] = target: T1, porcine megalin; assay: Surface plasmon resonance: competition for lysozyme binding to chip-immobilized megalin; details: 10 µg/ml lysozyme in 0 to 100 mM amino-acid
Method: as §1, §2, §3

Ctns KO mice kidneys = assay: Kidney cystine content in Ctns KO mice; assay type: in vivo; details: for mean kidney cystine at 8 months-of-age: Ctns KO female mice, diet from 6-to-8 months-of-age; for kidney cystine as percentage of mean control diet, pooled for 8 and 12 months-of-age: 2 and 6 months of treatment
Method: For this pilot study, we selected tissue accumulation of cystine as a clear and measurable outcome to quantify long-term interference of dAAs with the endocytic supply of disulfide-rich plasma proteins to kidney PTCs.
Mice were euthanized by cabon dioxide (CO2) inhalation. Dissected tissues were homogenized in 10 mM N-ethylmaleimide. Protein fraction was obtained after precipitation in 10% 5-sulfosalicylic acid and centrifugation at 20,000g for 20 min at 4 °C. Protein pellet was resuspended in 100 mM NaOH and assayed by the Bio-Rad Protein Assay according to manufacturer’s instructions. Supernatant (50 μl) was mixed with 50 μL of the internal standard solution (Cystine d6) and vortexed for 5 s; then the mixture was extracted with 200 μl of acetonitrile, vortexed for at least 30 s, then centrifuged at 13,000 rpm for 9 min. Liquid chromatography and mass spectrometry analysis was performed by a UHPLC Agilent 1290 Infinity II 6470 (Agilent Technologies) equipped with an ESI-JET-STREAM source operating in the positive ion (ESI +) mode. Equipment was controlled and data were analyzed using MassHunter Workstation (Agilent Technologies). The separation column was InfinityLab Poroshell 120 HILIC 1.9 μm 100 × 2.1 mm (Agilent Technologies). Validation of the method was performed basing on the US Food and Drug Administration (FDA) guideline for industry bioanalytical method validation (FDA 2013) and European Medicines Agency (EMA) guideline (EMA 2011). The assay was validated for selectivity, specificity, linearity and limit of quantification, accuracy and precision, matrix effects and recovery, and stability.

megalin pathway = assay: LMW proteinuria / albuminuria in Ctns KO mice under 5x-dAA diets
Method: After 24-h adaptation in metabolic cages, urine was collected during the following 24 h in presence of 0.1% sodium azide and 1x-protease inhibitors (Thermo Scientific). When in metabolic cages, mice had free access to tap water and food. Blood was collected 2 days before starting the treatments and entry into metabolic cages (baseline) and at the sacrifice to obtain serum. Body weight was recorded before entering the metabolic cages. Urine and serum analyses were performed by the veterinary laboratory Appialab Srl (Rome, Italy). Urinary levels of CC16 were measured by the Mouse Clara Cell Protein 16 kit 96 T #EKU03200 (Biomatik) according to manufacturer’s instructions. Serum levels of cystatin-C were measured by the Mouse/Rat Cystatin C Quantitative ELISA #MSCTC0 (R&D Systems). […] Creatinine clearance was normalized by mouse body weight.

[4] = Ctns KO mice at 8 months of age, 2 months of treatment, serum, mean ± SEM
[5] = Ctns KO mice at 8 months of age, 2 months of treatment, urine, mean ± SEM

NCCCC[C@H](N)C(=O)O [5x-L-lysine, L-lysine]
Body weight ([1]; Ctns KO mice at 8 months of age, 2 months of treatment, mean ± SEM): 23.0 ± 0.9 g
Serum creatinine [1, 4]: 0.8 ± 0.1 (n = 9) mg/dL
Serum cystatin-C [1, 4]: 669.2 ± 33.2 ng/mL
Serum glucose [1, 4]: 169.1 ± 9.3 (n = 9) mg/dL
Serum phosphate [1, 4]: 10.1 ± 0.5 (n = 9) mg/dL
Serum urea [1, 4]: 58.3 ± 2.6 (n = 9) mg/dL
Daily creatinine output [1, 5]: 0.7 ± 0.1 mg/day
Diuresis [1, 5]: 2.8 ± 0.2 mL/day
Urine creatinine [1, 5]: 25.6 ± 2.5 mg/dL
Urine glucose/creatinine [1, 5]: 19.0 ± 4.6 g/g
Urine phosphate/creatinine [1, 5]: 2.3 ± 0.4 g/g
Urine urea/creatinine [1, 5]: 173.0 ± 15.2 g/g
IC50 (porcine megalin [2]): 25 mM
SPR signal of amino-acid alone on megalin chip (porcine megalin [2]): no signal was detected
effect on megalin binding of lysozyme (porcine megalin [3]): concentration-dependent decrease
mean kidney cystine at 8 months-of-age (Ctns KO mice kidneys): 83.6 ± 38.7 nmol hemi-cystine/mg kidney protein
kidney cystine as percentage of mean control diet, pooled for 8 and 12 months-of-age (Ctns KO mice kidneys; Ctns KO mice): significantly lower than control
cumulative decrease of kidney cystine accumulation (Ctns KO mice kidneys; Ctns KO mice, two-months treatment from 6-to-8 months of age): ~ twofold
increase of microalbuminuria vs control diet (megalin pathway; Ctns KO female mice, diet from 6-to-8 months of age): no detectable increase
Urine CC16/creatinine (megalin pathway; [5]): 4314 ± 540.3 µg/g
Urine microalbumin/creatinine (megalin pathway; [5]): 0.1 ± 0.0 mg/g

N=C(N)NCCC[C@H](N)C(=O)O [5x-L-arginine, L-arginine]
Calculated creatinine clearance ([1]; mouse, in vivo): 40.7 ± 3.5 µL/min
Serum creatinine ([1]; mouse, in vivo): 0.9 ± 0.1 mg/dL
Serum cystatin-C ([1]; mouse, in vivo): 1092 ± 56.5 ng/mL
Serum glucose ([1]; mouse, in vivo): 170.9 ± 9.5 mg/dL
Serum phosphate ([1]; mouse, in vivo): 9.7 ± 0.3 mg/dL
Serum urea ([1]; mouse, in vivo): 63.6 ± 3.8 mg/dL
Urine creatinine ([1]; mouse, in vivo): 22.1 ± 2.7 mg/dL
Urine glucose/creatinine ([1]; mouse, in vivo): 25.8 ± 4.0 g/g
Urine phosphate/creatinine ([1]; mouse, in vivo): 1.9 ± 0.2 g/g
Urine urea/creatinine ([1]; mouse, in vivo): 238.2 ± 17.3 g/g
IC50 (porcine megalin [2]): 57 mM
SPR signal of amino-acid alone on megalin chip (porcine megalin [2]): no signal was detected
effect on megalin binding of lysozyme (porcine megalin [3]): concentration-dependent decrease
mean kidney cystine at 8 months-of-age (Ctns KO mice kidneys): 90.0 ± 32.3 nmol hemi-cystine/mg kidney protein
kidney cystine as percentage of mean control diet, pooled for 8 and 12 months-of-age (Ctns KO mice kidneys; Ctns KO mice): without reaching statistical significance
Urine CC16/creatinine (megalin pathway; [5]): 3151 ± 556.1 µg/g
